In US5939403A, “Keratan sulfate oligosaccharide fraction and pharmaceutical containing the same” (Seikagaku Corporation, priority 1994, dated 1999):
Counter-ions that a name gives are not always drawn.

Columns and labels:
allergic conjunctivitis = assay: TDI-induced allergic conjunctivitis model, eye dropping; type: in vivo, female Hartley guinea pigs
Protocol: A variety of the keratan sulfate oligosaccharide was dropped in the eyes of the guinea pigs subjected to the induction of allergic conjunctivitis to examine the effect thereof.
Toluene diisocyanate (hereinafter referred to as TDI) was diluted with ethyl acetate to a concentration of 10%. To the bilateral vestibule of noses of 10 female Hartley guinea pigs of from about 900 to 1,000 g weight, the 10% TDI (10 μl/animal) obtained above was applied once a day for five days to prepare the TDI sensitization models. The PBS solution of the purified keratan sulfate tetrasaccharide (I) ([…]) which was prepared in Example 1 was dropped in the left eyes of the TDI sensitization models, while PBS was dropped in the right eyes as the control. The dose of dropping was one drop (48+4.6 μl (S.D.)) each from the eye dropper. After 10 minutes, 6.5 μl of 10% TDI was dropped to the both eyes to induce conjunctivitis. After five minutes standing, furthermore, the PBS solution of the keratan sulfate tetrasaccharide (I) ([…]) was dropped in the left eyes, and PBS was dropped in the right eyes. After 15 minutes, observation of the both eyes were carried out. The degree of conjunctivitis was evaluated regarding three items of hyperemia, edema and lacrimation into four grades such as point 0, +1, +2 and +3. In the figure, * represents that it has the significant difference with p<0.05 (wherein "p" means a level of significance by the .chi.^2 test).
The PBS solution of the purified keratan sulfate disaccharide (III), the keratan sulfate tetrasaccharide (I), and the keratan sulfate pentasaccharide (II) (6.0 mg/ml, respectively)which were prepared in Example 1 described above as the test substances were dropped, respectively, in the left eyes of the TDI sensitization models of 10 animals a group each which were prepared in the same manner as in (1) described above, and PBS was dropped in the right eyes as the control. The degree of conjunctivitis was evaluated in the same manner as in (1) described above. In the figure, * represents that it has the significant difference with p<0.05 (wherein "p" means a level of significance by the .chi.^2 test).
The PBS solution containing the purified keratan sulfate tetrasaccharide (I) which was prepared in Example 1 described above, at varieties of concentrations (6 mg/ml, 3 mg/ml, 1.5 mg/ml or 0.75 mg/ml) as the test substance, were dropped, respectively, in the left eyes of the TDI sensitization models of 10 animals a group each which were prepared in the same manner as in (1) described above, and PBS was dropped in the right eyes as the control. The degree of conjunctivitis was evaluated in the same manner as in (1) described above. In the figure, * represents that it has the significant differnce with p<0.05 (wherein "p" means a level of significance by the .chi.^2 test).

submandibular lymph node = assay: Observation of apoptic body in submandibular lymph node sections (HE staining); type: in vivo, MRL-lpr/lpr mice; conditions: any dose (1, 5, 25 mg/kg i.m.), four weeks
[1] = 6.0 mg/ml eye drop, comparison of oligosaccharides

SMILES | degree of conjunctivitis: hyperemia, edema and lacrimation (FIG. 12) (allergic conjunctivitis; [1]) | existence of the apoptic body (submandibular lymph node) | degree of conjunctivitis: edema (FIG. 12) (allergic conjunctivitis; 6.0 mg/ml eye drop, comparison of oligosaccharides, p<0.05) | degree of conjunctivitis: edema (FIG. 13) (allergic conjunctivitis; 6 mg/ml, 3 mg/ml, and 1.5 mg/ml eye drop, p<0.05) | degree of conjunctivitis: hyperemia, edema and lacrimation (FIG. 11) (allergic conjunctivitis; 100 mg/ml eye drop) | degree of conjunctivitis: edema (FIG. 11) (allergic conjunctivitis; 100 mg/ml eye drop, p<0.05) | degree of conjunctivitis: hyperemia, edema and lacrimation (FIG. 13) (allergic conjunctivitis; 6, 3, 1.5 and 0.75 mg/ml eye drop)
CC(=O)N[C@H]1C(O)O[C@H](COS(=O)(=O)O)[C@@H](O[C@@H]2O[C@H](COS(=O)(=O)O)[C@H](O)[C@H](O)[C@H]2O)[C@@H]1O (stereo partly drawn) [keratan sulfate disaccharide (III), Gal(6S)β1-4GlcNAc(6S)] | tended to show inhibition in all the items | the scattering of the apoptic body was observed | – | – | – | – | –
CC(=O)N[C@H]1[C@H](O[C@H]2[C@@H](O)[C@@H](COS(=O)(=O)O)O[C@@H](O[C@H]3[C@H](O)[C@@H](NC(C)=O)C(O)O[C@@H]3COS(=O)(=O)O)[C@@H]2O)O[C@H](COS(=O)(=O)O)[C@@H](O[C@@H]2O[C@H](COS(=O)(=O)O)[C@H](O)[C@H](O)[C@H]2O)[C@@H]1O (stereo partly drawn) [keratan sulfate tetrasaccharide (I), Gal(6S)β1-4GlcNAc(6S)β1-3Gal(6S)β1-4GlcNAc(6S)] | tended to show inhibition in all the items | – | shows a significant inhibitory effect on edema | showed a significant inhibitory effect on edema | tended to show inhibition in all the items | significantly inhibited edema compared with the control | tended to show inhibition in all the items
